We go through seven molecules from patent publication US11661582B2, “Method for producing sinoatrial node cells (pacemaker cells) from stem cells, and use of the produced sinoatrial node cells” (UNIVERSITAET ROSTOCK, priority 2013, dated 2023).

“Also recorded” adds a separate entry of the source.

The subject of one assay is cells derived from aCaBs. The experiment in a line: Ca2+ imaging (Fluo-4) of SR Ca2+ stores in aCaB-derived control cells. The format is cell-based, murine.
The subject of assay [1] is cells derived from iSABs (Myh6-TBX3 cells). Kind of assay: Ca2+ imaging (Fluo-4) of spontaneous Ca2+ transients and SR Ca2+ stores in iSAB-derived cells. Particulars: for diastolic Ca2+ level: caffeine 10 mM, thapsigargin 2 μM; for frequency of spontaneous Ca2+ transients: 5 μM ZD 7288, 1 μM mibefradil, 1 μM nifedipine, 28° C. It is filed as cell-based, murine.
For assay [2], the system named is sinoatrial node cells produced in vitro from stem cells. The experiment in a line: Beat frequency of stem-cell-derived sinoatrial node cells contacted with pharmaceuticals. Particulars: sinoatrial node cells of the invention contacted with pharmaceuticals. The format is cell-based, murine.
Assay [3] concerns cells originating from iSAB. The experiment in a line: Single-cell patch-clamp, action potential rate of cells originating from iSAB. The format is cell-based, murine. The conditions noted are these: for AP rate: patch-clamp, 37° C. The procedure:
(§1) Spontaneous action potentials and currents of contracting cardiomyocytes were recorded at 37° C. in the perforated patch configuration using a MultiClamp 700B amplifier and pClamp10 software (Molecular Devices, Union City, USA). The offline data analysis was conducted with Clampfit software (Molecular Devices, Union City, USA) or by means of Origin 6.0 software (Microcal, Northampton, USA). […] The extracellular (bath) solution contained: 140 mM NaCl, 5.4 mM KCl, 1 mM MgCl2, 1.8 mM CaCl2, 5 mM HEPES, 5.5 mM glucose; the pH was adjusted to 7.4 with NaOH. For better recording of the If, in some cases, 2 mM BaCl2 and 0.3 mM CdCl2 were added to the bath solution in order to block IKl and ICa. If was measured by stepwise change proceeding from a hold potential of −40 mV to test potentials between −130 mV and +20 mV. The current amplitude after 3 seconds during the −130 mV pulse was divided by the cell capacitance in order to determine the current (If) density. To determine the If activation kinetics, the time constant of the activation (τ) was obtained by fitting the current trace of the −130 mV step after the initial delay with the sum of two exponential functions y=A1e1 ^−x/τ)+A2e2^(−x/τ), where τ1 and τ2 are fast and slow time constants for the activation; τ1 is accordingly referred to as τ, since the slow component (A2) of the HCN channel activation is generally <10% of the current amplitude. Isoproterenol or carbachol (Sigma, Taufkirchen, Germany) was dissolved directly in the bath solution on the day of the experiment and the cells were administered by means of a rapid exchange superfusion system. APs were recorded with a 10 kHz sampling rate. The analyses were conducted on the original traces. The inclination/slope of the linear fit of the distance from the MDP to the potential threshold is the DDR; the AP duration is the time from the threshold potential to the MDP.

Assay [4] relates to isolated Tbx3-programmed cells (SA/AV pacemaker-type). Kind of assay: Single-cell patch-clamp, action potential rate of Tbx3-programmed cells. Particulars: 37° C. It is filed as cell-based, murine. The method, then:
For the further validation of the functionality and determination of the proportions of the subtypes of the cardiomyocytes, the electrophysiological properties were analyzed by the single-cell patch-clamp technique and the measurement of the density of the HCN (or funny) channels on day 18 of the differentiation as described [14] [16].
as §1, with “The inclination/slope of the linear fit of the distance from the MDP to the potential threshold is the DDR; the AP duration is the time from the threshold potential to the MDP.” left out
(Patch clamp records ionic current or voltage across a cell membrane.)

The subject of another assay is murine ES cells. Particulars: literature [9]; cited from earlier work.

As to `Cn1c(=O)c2c(ncn2C)n(C)c1=O` [caffeine], the “caffeine-induced effect on SR-Ca2+ release” value with cells derived from aCaBs (caffeine 10 mM, aCaB-derived cells) is recorded as “No similar caffeine-induced effect”. The “caffeine-induced Ca2+ peak, sarcolemmal Ca2+ influx blocked” value in assay [1] (blockage of Na+/Ca2+ exchanger and Ca2+ channels, iSAB-derived cells compared to aCaB-derived cells) is listed as “four times greater; also recorded: large caffeine peak”. Also, the “diastolic Ca2+ level” value in assay [1] (iSAB-derived cells) was “increased the diastolic Ca^2+ level”.

Regarding `CC(C)NCC(O)c1ccc(O)c(O)c1` (stereo not drawn) [isoproterenol], in assay [2], the beat frequency result is given as “increase in beat frequency”. Besides, the AP rate result was “accelerated” in assay [3], “acceleration in the AP rate” in assay [4] and “accelerated” in assay [4] (listed as isoprotenerol). For the same molecule, in assay [3] (range up to), the “beat frequencies in response to isoprotenerol” value is “up to 560 bpm”.

On to `C/C=C(/C)C(=O)O[C@H]1C(C)=C2[C@H]([C@@H]1OC(=O)CCCCCCC)[C@@](C)(OC(C)=O)C[C@H](OC(=O)CCC)[C@@]1(O)[C@H]2OC(=O)[C@@]1(C)O` [thapsigargin], for which, in the assay with cells derived from aCaBs (control cells (aCaB-derived)), the “caffeine Ca2+ peak with and without SERCA inhibition” value was “remained identical”; the “intracellular Ca2+ accumulation with SERCA inhibition” value was “impossible to detect any intracellular Ca^2+ accumulation”. Further, the “rate of intracellular Ca2+ accumulation with SERCA inhibition” value in assay [1] (Na+/Ca2+ exchanger blocked plus SERCA inhibition, vs. no SERCA inhibition, iSAB-derived cells) is listed as “fourfold increase”. The “diastolic Ca2+ level” value in assay [1] (iSAB-derived cells) is recorded as “increase in the Ca^2+ diastolic level; also recorded: increased diastolic Ca^2+ levels”. In addition, in assay [1] (caffeine added 5 min after incubation with thapsigargin, iSAB-derived cells), the “reduction of caffeine Ca2+ peak (factor)” value amounted to 4.

As for `CCN(c1ccccc1)c1cc(=NC)n(C)c(C)n1.Cl` [ZD 7288], the “frequency of spontaneous Ca2+ transients” value was “reduced the frequency of the Ca^2+ transients” in assay [1] and “decrease significantly” in assay [1] (listed as ZD7288). For the same molecule, the beat frequency entry in assay [2] is on record as “significant reduction in beat frequency”.

Consider `CCn1c(=O)[nH]c2ccccc21` [EBIO], for which the “formation of node cells from murine ES cells” value with murine ES cells is on record as “enhances the formation of node cells”.

Turning to `COCC(=O)O[C@]1(CCN(C)CCCc2nc3ccccc3[nH]2)CCc2cc(F)ccc2[C@@H]1C(C)C` [mibefradil], in assay [1], the “frequency of spontaneous Ca2+ transients” value is on record as “moderate decrease”.

Consider `C[N+](C)(C)CCOC(N)=O` [carbachol], for which, in assay [2], the beat frequency entry is reported as “significant reduction in beat frequency”. Further, the AP rate result in assay [3] and in assay [4] was “slowed” in each case.
